Measurements published in patent publication US10704076B2, “Multi-tiered high through-put screen for compounds effective against bacterial biofilm and compounds effective for inhibiting and eradicating bacterial biofilm” (University of Cincinnati, priority 2013, dated 2020).

How the values were obtained:
Assay type in all cases: cell-based, Acinetobacter baumannii
[1] = system: A. baumannii; assay: HTS total bacterial growth assay (optical density OD560); conditions: for AC50: Acinetobacter baumannii, 10 point dose-response 0.1-50 μM, NS* = no sigmoid curve observed, read-out: Total Bacteria Growth AC50
Source text: (§1) Each HTS tier consisted of: (i) primary screening, (ii) confirmation screening and (iii) dose-response curve screening. Each tier of HTS included three distinct biological process assays. The first assay was an optical density measurement of bacteria growth in the presence of each compound reported as a total bacteria growth. In the second assay, resazurin solution was used as an indicator of metabolic activity to measure the live bacteria in the biofilms, reported as live biofilm. The final assay was crystal violet staining, which indicated the amount of biofilm formation and the effect of each compound on this process, reported as total biofilm formation.
(§2) Briefly, stationary phase bacteria grown in L-broth were diluted 1:200 into fresh L-broth and 50 μM of each test compound. After 20-24 hours, the optical density (OD560) of each suspension was measured using Zeiss Plate::Vision with a 560 BP filter (560 nm, 2.5% light intensity, 1 mm focus to bottom of plate, and exposure time of 100 ms). To measure bacterial viability in the biofilm, 50 μl of a 5 mg/ml resazurin solution in L-broth was added to each well after washing 3 times with 50 μl of PBS. The plates were then incubated at 37° C. for 30 or 180 min for A. baumannii and P. aeruginosa biofilms, respectively. Fluorescence was measured using Zeiss Plate::Vision at excitation and emission wavelengths of 535 and 580 nm, 100 ms exposure time, 2.5% intensity and a 2 mm focus to the bottom of the biofilms. To assess biofilm formation, plates were washed 3 times with PBS and then 50 μl of 0.01% of crystal violet was added to each well to assess bacterial biofilm formation as described in a similar borosilicate tube assay by O'Toole and Kolter. After incubation at room temperature for 30 min and removal of the crystal violet solution by washing with PBS, 95% ethanol was added to solubilize the crystal violet followed by incubation for 20 min at room temperature. Finally, the optical density of each plate was determined using measured by Zeiss Plate::Vision using the same settings used to measure total bacterial growth. These 3 steps were used in each of the three tiers for the HTS process: (i) single point primary screening at 10 μM, (ii) triplicate confirmation of hits from (i) at 10 μM and (iii) determination of AC50 values in 10 point dose-response at a concentration range of 0.1-50 μM) in hits from (ii). The AC50 represents the concentration of compound that inhibits 50% of bacterial growth, bacterial viability, or biofilm formation. Genedata Screener® Assay Analyzer Software (Ver. 9.0.0 Standard) was used to analyze data from all assay tiers. Compounds with an AC50 of less than 20 μM in one of the biological assays from the dose response screen were subject to additional investigation.

[2] = system: A. baumannii biofilm; assay: HTS total biofilm formation assay (crystal violet staining); conditions: for AC50: Acinetobacter baumannii, 10 point dose-response 0.1-50 μM
Source text: as §1, §2

[3] = system: A. baumannii biofilm; assay: CLSM, co-culture of bacteria with compound (inhibition of biofilm formation); conditions: for killing of residential bacteria, co-culture (CLSM, in words): 10 μM; for Co-culture of bacteria with compound: Killing: Y / —
Protocol: Broad spectrum agents (effective against all three bacterial species) and single agent compounds identified as HTS hits were investigated with CLSM confirmation of inhibition of biofilm formation (culture of bacteria with compounds) or killing of bacteria residing within an established biofilm (compound addition after culturing biofilm). To evaluate inhibition of P. aeruginosa biofilms, bacteria were sub-cultured into 10% L-broth and grown at 37° C. until the OD600 reached 0.25. The bacteria were further diluted 1:100 into a modified 0.5×M63 minimum media (50 mM KH2PO4, 7.5 mM (NH4)2SO4, 9 μM FeSO4, 0.5% casamino acids, 0.2% glucose, and 1 mM MgSO4). A. baumannii biofilms were also grown in 10% L-broth until the OD600 reached 0.05 but diluted 1:10 into 5% L-broth media. S. epidermidis biofilm cultures were grown. Briefly, the bacteria were grown in TSB until the OD600 reached 0.75, and a 1:100 dilution of the bacteria was sub-cultured into phosphate buffered saline (PBS). All of the biofilm bacterial cultures were grown in 96-well plate chambers (MatTek Corp., Ashland, Mass.) in the presence of 10 μM of each compound or DMSO as a control and incubated for 18 hrs at 37° C. To investigate the ability of compounds to kill bacteria within pre-existing biofilms, biofilms were grown under the same conditions, but without test compound. These biofilms were washed once with PBS and incubated an additional 24 hr at 37° C. in PBS containing 300 μM of each compound. All biofilm cultures were then washed twice with 100 μL of PBS and stained using the LIVE/DEAD® BacLight™ Bacterial Viability Kit (Invitrogen). Finally, biofilm images were obtained using a Zeiss LSM510 META Confocal Microscope (Carl Zeiss, Inc., Germany). A 488 nm laser was used in conjunction with a Plan-Apochromat 100×/1.4 Oil DIC objective. Z-stacks were 8 bit and measured 127.3 μm×127.3 μm×16.0 μm in size. The filters used were 505-530 and 620-680 IR, as the excitation and emission wavelengths for red fluorescence are 490 nm and 635 nm, respectively, and 480 nm and 500 nm for green fluorescence. Three dimensional images were generated using the “Projection” ability on LSM Image Browser software (v.1.4.0.121) or Zeiss LSM image browser software version 3.5 (Carl Zeiss, Inc., Germany), and Live/Dead calculations were conducted based upon these images using MacBiophotonics ImageJ following the guidelines in the cell counting guide by C. Labno {Rasband, 1997-2011 #25; Labno, #2} at the University of Chicago Integrated Light Microscopy Core. The thickness of the biofilm was calculated using Comstat software. A hit was defined as a >50% dead to live ratio.
The CLSM experiment was performed in one or two or all bacteria used in this study depending on its activity. For the validation of HTS hits, 10 μM of compound was added to each bacterial suspension and the resulting biofilm stained with LIVE/DEAD® BacLight™ Bacterial Viability Kit. The images were analyzed to determine the live and dead ratios of biofilm bacteria, the thickness of biofilms, and structural attributes of biofilms.

| Structure (SMILES) | AC50 [1] | AC50 [2] | killing of residential bacteria, co-culture (CLSM, in words) [3] | Co-culture of bacteria with compound: Killing ([3]; CLSM, 10 μM compound, 18 hrs) | HTS assay results: Total Bacteria growth ([1]; Y / —) | HTS assay results: Biofilm Formation ([2]; Y / —) | Co-culture of bacteria with compound: Inhibit biofilm formation ([3]; CLSM, 10 μM compound, 18 hrs) |
| --- | --- | --- | --- | --- | --- | --- | --- |
| Cn1sc(Cl)c(C#N)c1=O [Compound 3, 5-chloro-2-methyl-3-oxo-1,2-thiazole-4-carbonitrile] | 2.93 µM | 4.45 µM | killed residential bacteria | Y (A hit was defined as a >50% dead to live ratio) | – | – | – |
| NC(=S)N1CCN(c2cc3c(cc2F)c(=O)c(C(=O)O)cn3C2CC2)CC1 [Compound 7, 7-(4-carbamothioylpiperazin-1-yl)-1-cyclopropyl-6-fluoro-4-oxoquinoline-3-carboxylic acid] | 12.1 µM | 17.7 µM | killed residential bacteria | Y (A hit was defined as a >50% dead to live ratio) | – | – | – |
| O=C(O)c1cn(C2CC2)c2c(F)c(N3CC(O)C3)c(F)cc2c1=O [Compound 8, 1-cyclopropyl-6,8-difluoro-7-(3-hydroxyazetidin-1-yl)-4-oxoquinoline-3-carboxylic acid] | 3.44 µM | – | killed residential bacteria | Y (A hit was defined as a >50% dead to live ratio) | —* (AC50 higher than 20 μM) | —* (AC50 higher than 20 μM) | – |
| O=C(O)c1cn(C2CC2)c2c(F)c(-c3ccncc3)c(F)cc2c1=O [Compound 11, 7-(4-pyridyl)-1-cyclopropyl-6,8-difluoro-4-oxoquinoline-3-carboxylic acid] | 0.66 µM | 0.85 µM | – | – | – | – | inhibited biofilm formation |
